Tests used:
[1] = target: T1, HCV NS3/4A protease complex (UniProt P27958, C1454S/C1711G, species not given); experiment: Recombinant HCV NS3/4A protease complex FRET peptide assay (strain not stated); type: biochemical; conditions: HCV NS3/4A protease enzyme assay, read-out: IC50 range
T1 construct: fused on or other part: Three-lysine solubilising tail at the C-terminus of NS4A
Description: Recombinant HCV NS3/4A Protease Complex FRET Peptide Assay
The purpose of this in vitro assay was to measure the inhibition of HCV NS3 protease complexes, derived from the BMS, H77C or J416S strains, as described below, by compounds of the present invention. This assay provides an indication of how effective compounds of the present invention would be in inhibiting HCV proteolytic activity.
Serum from an HCV-infected patient was obtained from Dr. T. Wright, San Francisco Hospital. An engineered full-length cDNA (compliment deoxyribonucleic acid) template of the HCV genome (BMS strain) was constructed from DNA fragments obtained by reverse transcription-PCR (RT-PCR) of serum RNA (ribonucleic acid) and using primers selected on the basis of homology between other genotype 1a strains. From the determination of the entire genome sequence, a genotype 1a was assigned to the HCV isolate according to the classification of Simmonds et al. (See P Simmonds, K A Rose, S Graham, S W Chan, F McOmish, B C Dow, E A Follett, P L Yap and H Marsden, J. Clin. Microbiol., 31(6), 1493–1503 (1993)). […] The infectious clones, H77C (1a genotype) and J4L6S (1b genotype) were obtained from R. Purcell (NIH) and the sequences are published in Genbank (AAB67036, see Yanagi, M., Purcell, R. H., Emerson, S. U. and Bukh, J. Proc. Natl. Acad. Sci. U.S.A. 94(16),8738–8743 (1997); AF054247, see Yanagi, M., St Claire, M., Shapiro, M., Emerson, S. U., Purcell, R. H. and Bukh, J, Virology 244 (1), 161–172. (1998)).
The BMS, H77C and J4L6S strains were used for production of recombinant NS3/4A protease complexes. DNA encoding the recombinant HCV NS3/4A protease complex (amino acids 1027 to 1711) for these strains were manipulated as described by P. Gallinari et al. (see Gallinari P, Paolini C, Brennan D, Nardi C, Steinkuhler C, De Francesco R. Biochemistry. 38(17):5620–32, (1999)). Briefly, a three-lysine solubilizing tail was added at the 3′-end of the NS4A coding region. The cysteine in the P1 position of the NS4A-NS4B cleavage site (amino acid 1711) was changed to a glycine to avoid the proteolytic cleavage of the lysine tag. Furthermore, a cysteine to serine mutation was introduced by PCR at amino acid position 1454 to prevent the autolytic cleavage in the NS3 helicase domain. The variant DNA fragment was cloned in the pET21b bacterial expression vector (Novagen) and the NS3/4A complex was expressed in Escherichia. coli strain BL21 (DE3) (Invitrogen) following the protocol described by P. Gallinari et al. (see Gallinari P, Brennan D, Nardi C, Brunetti M, Tomei L, Steinkuhler C, De Francesco R., J. Virol. 72(8):6758–69 (1998)) with modifications. Briefly, NS3/4A expression was induced with 0.5 mM Isopropyl β-D-1-thiogalactopyranoside (IPTG) for 22 hr at 20° C. A typical fermentation (10L) yielded approximately 80 g of wet cell paste. The cells were resuspended in lysis buffer (10 mL/g) consisting of 25 mM N-(2-Hydroxyethyl)Piperazine-N′-(2-Ethane Sulfonic acid) (HEPES), pH7.5, 20% glycerol, 500 mM Sodium Chloride (NaCl), 0.5% Triton-X100, 1 ug/ml lysozyme, 5 mM Magnesium Chloride (MgCl2), lug/ml Dnasel, 5 mM β-Mercaptoethanol (βME), Protease inhibitor—Ethylenediamine Tetraacetic acid (EDTA) free (Roche), homogenized and incubated for 20 mins at 4° C. The homogenate was sonicated and clarified by ultra-centrifugation at 235000 g for 1 hr at 4° C. Imidazole was added to the supernatant to a final concentration of 15 mM and the pH adjusted to 8.0. The crude protein extract was loaded on a Nickel-Nitrilotriacetic acid (Ni-NTA) column pre-equilibrated with buffer B (25 mM HEPES, pH 8.0, 20% glycerol, 500 mM NaCl, 0.5% Triton-X100, 15 mM imidazole, 5 mM βME). The sample was loaded at a flow rate of 1 mL/min. The column was washed with 15 column volumes of buffer C (same as buffer B except with 0.2% Triton-X100). The protein was eluted with 5 column volumes of buffer D (same as buffer C except with 200 mM Imidazole). […]

[2] = tested on: HCV replicon in Huh7 cells; experiment: HCV replicon cell-based assay; parameters: species or system HCV strain 1B; conditions: Hepatitis C virus, Huh-7, 96 h, HCV replicon, 4 days, read-out: EC50 range
Description: HCV Replicon Cell-based Assay
An HCV replicon whole cell system was established as described by Lohmann V, Komer F, Koch J, Herian U, Theilmann L, Bartenschlager R., Science 285(5424):110–3 (1999). This system enabled us to evaluate the effects of our HCV Protease compounds on HCV RNA replication. Briefly, using the HCV strain 1B sequence described in the Lohmann paper (Assession number:AJ238799), an HCV cDNA was generated encoding the 5′ internal ribosome entry site (IRES), the neomycin resistance gene, the EMCV (encephalomyocarditis viurs)-IRES and the HCV nonstructural proteins, NS3-NS5B, and 3′ non-translated region (NTR). In vitro transcripts of the cDNA were transfected into the human hepatoma cell line, Huh7. […] Resulting cell lines were characterized for positive and negative strand RNA production and protein production over time.
Huh7 cells, constitutively expressing the HCV replicon, were grown in Dulbecco's Modified Eagle Media (DMEM) containing 10% Fetal calf serum (FCS) and 1 mg/ml G418 (Gibco-BRL). Cells were seeded the night before (1.5×10^4 cells/well) in 96-well tissue-culture sterile plates. Compound and no compound controls were prepared in DMEM containing 4% FCS, 1:100 Penicillin/Streptomysin, 1:100 L-glutamine and 5% DMSO in the dilution plate (0.5% DMSO final concentration in the assay). Compound/DMSO mixes were added to the cells and incubated for 4 days at 37° C. After 4 days, plates were rinsed thoroughly with Phosphate-Buffered Saline (PBS) (3 times 150 μl). The cells were lysed with 25 μl of a lysis assay reagent containing the FRET peptide (RET S1, as described for the in vitro enzyme assay). The lysis assay reagent was made from 5× cell Luciferase cell culture lysis reagent (Promega #E153A) diluted to 1× with distilled water, NaCl added to 150 mM final, the FRET peptide diluted to 10 μM final from a 2 mM stock in 100% DMSO. The plate was then placed into the Cytofluor 4000 instrument which had been set to 340 nm excitation/490 emission, automatic mode for 21 cycles and the plate read in a kinetic mode. EC50 determinations were carried out as described for the IC50 determinations.
As a secondary assay, EC50 determinations from the replicon FRET assay were confirmed in a quantitative RNA assay. Cells were lyzed using the Rneasy kit (Qiagen). Purified total RNA was normalized using RiboGreen (Jones L J, Yue S T, Cheung C Y, Singer V L, Anal. Chem., 265(2):368–74 (1998)) and relative quantitation of HCV RNA expression assessed using the Taqman procedure (Kolykhalov A A, Mihalik K, Feinstone S M, Rice C M, Journal of Virology 74, 2046–2051 (2000)) and the Platinum Quantitative RT-PCR Thermoscript One-Step kit (Invitrogen cat # 11731-015). Briefly, RNA made to a volume of 5 μl (<1 ng) was added to a 20 μl Ready-Mix containing the following: 1.25× Thermoscript reaction mix (containing Magnesium Sulfate and 2-deoxynucleoside 5′-triphosphates (dNTPs)), 3 mM dNTPs, 200 nM forward primer (sequence: 5′-[…]-3′), 600 nM reverse primer (5′-[…]-3′), 100 nM probe (5′-6-FAM-[…]-BHQ-1-3′)(FAM: Fluorescein-aminohexyl amidite; BHQ: Black Hole Quencher), 1 μM Rbx reference dye (Invitrogen cat # 12223-012) and Thermoscript Plus Platinum Taq polymerase mixture. All primers were designed with ABI Prism 7700 software and obtained from Biosearch Technologies, Novato, Calif. Samples containing known concentrations of HCV RNA transcript were run as standards. Using the following cycling protocol (50° C., 30 min; 95° C., 5 min; 40 cycles of 95° C., 15 sec, 60° C., 1 min), HCV RNA expression was quantitated as described in the Perkin Elmer manual using the ABI Prism 7700 Sequence Detector.
The luciferase reporter assay was also used to confirm compound potency in the replicon. Utilization of a replicon luciferase reporter assay was first described by Krieger et al (Krieger N, Lohmann V, and Bartenschlager R, J. Virol. 75(10):4614–4624 (2001)). […]

Row | SMILES | IC50 [1] [nM] | EC50 [2] [nM]
1 | C=CC1C[C@]1(NC(=O)[C@@H]1C[C@@H](OC(=O)Nc2ccccc2I)CN1C(=O)[C@@H](NC(=O)OC(C)(C)C)C(C)(C)C)C(=O)NS(=O)(=O)C1CC1 (stereo partly drawn) [Compound 65, BocNH-P3(t-BuGly)-P2(Hyp(O—CO(NH—(2-iodo-phenyl))))-P1(1R,2S VinylAcca)—CONHSO2Cyclopropane] | < 100 | 100 to 1000
2 | C=CC1C[C@]1(NC(=O)[C@@H]1C[C@@H](OC(=O)Nc2cc(C)ccc2-n2nccn2)CN1C(=O)[C@@H](NC(=O)OC(C)(C)C)C(C)(C)C)C(=O)NS(=O)(=O)C1CC1 (stereo partly drawn) [Compound 97, BocNH-P3(t-BuGly)-P2(Hyp(O—CO(NH—(5-Methyl-2-[1,2,3]triazol-2-yl-phenyl))))-P1(1R,2S VinylAcca)—CONHSO2Cyclopropane] | < 100 | < 100
3 | C=CC1C[C@]1(NC(=O)[C@@H]1C[C@@H](OC(=O)Nc2ccccc2[N+](=O)[O-])CN1C(=O)[C@@H](NC(=O)OC(C)(C)C)C(C)(C)C)C(=O)NS(=O)(=O)C1CC1 (stereo partly drawn) [Compound 60, BocNH-P3(t-BuGly)-P2(Hyp(O—CO(NH—(2-nitro-phenyl))))-P1(1R,2S VinylAcca)—CONHSO2Cyclopropane] | < 100 | 100 to 1000
4 | C=CC1C[C@]1(NC(=O)[C@@H]1C[C@@H](OC(=O)Nc2ccccc2CCC)CN1C(=O)[C@@H](NC(=O)OC(C)(C)C)C(C)(C)C)C(=O)NS(=O)(=O)C1CC1 (stereo partly drawn) [Compound 66, BocNH-P3(t-BuGly)-P2(Hyp(O—CO(NH—(2-propyl-phenyl))))-P1(1R,2S VinylAcca)—CONHSO2Cyclopropane] | < 100 | 1000 to 10000
5 | C=CC1C[C@]1(NC(=O)[C@@H]1C[C@@H](OC(=O)Nc2c(F)cccc2F)CN1C(=O)[C@@H](NC(=O)OC(C)(C)C)C(C)(C)C)C(=O)NS(=O)(=O)C1CC1 (stereo partly drawn) [Compound 52, BocNH-P3(t-BuGly)-P2(Hyp(O—CO(NH—(2,6-difluorophenyl))))-P1(1R,2S VinylAcca)—CONHSO2Cyclopropane] | 100 to 1000 | > 10000
6 | C=CC1C[C@]1(NC(=O)[C@@H]1C[C@@H](OC(=O)Nc2ccccc2-c2nnc[nH]2)CN1C(=O)[C@@H](NC(=O)OC(C)(C)C)C(C)(C)C)C(=O)NS(=O)(=O)C1CC1 (stereo partly drawn) [Compound 88, BocNH-P3(t-BuGly)-P2(Hyp(O—CO(NH—(2-(4H-[1,2,4]Triazol-3-yl)-phenyl))))-P1(1R,2S VinylAcca)—CONHSO2Cyclopropane] | < 100 | > 10000
7 | C=CC1C[C@]1(NC(=O)[C@@H]1C[C@@H](OC(=O)NC2CCCCC2)CN1C(=O)[C@@H](NC(=O)OC(C)(C)C)C(C)(C)C)C(=O)NS(=O)(=O)C1CC1 (stereo partly drawn) [Compound 6, BocNH-P3(t-BuGly)-P2(Hyp(O—CO(NH-cyclohexyl)))-P1(1R,2S VinylAcca)—CONHSO2Cyclopropane] | < 100 | 1000 to 10000
8 | C=CC1C[C@]1(NC(=O)[C@@H]1C[C@@H](OC(=O)Nc2cc(C#N)ccc2-n2cccn2)CN1C(=O)[C@@H](NC(=O)OC(C)(C)C)C(C)(C)C)C(=O)NS(=O)(=O)C1CC1 (stereo partly drawn) [Compound 98, BocNH-P3(t-BuGly)-P2(Hyp(O—CO(NH—(5-Cyano-2-pyrazol-1-yl-phenyl))))-P1(1R,2S VinylAcca)—CONHSO2Cyclopropane] | < 100 | < 100
9 | C=CC1C[C@]1(NC(=O)[C@@H]1C[C@@H](OC(=O)Nc2ccccc2CC)CN1C(=O)[C@@H](NC(=O)OC(C)(C)C)C(C)(C)C)C(=O)NS(=O)(=O)C1CC1 (stereo partly drawn) [Compound 59, BocNH-P3(t-BuGly)-P2(Hyp(O—CO(NH—(2-ethyl-phenyl))))-P1(1R,2S VinylAcca)—CONHSO2Cyclopropane] | 100 to 1000 | 1000 to 10000
10 | C=CC1C[C@]1(NC(=O)[C@@H]1C[C@@H](OC(=O)NCc2ccc(OC)cc2)CN1C(=O)[C@@H](NC(=O)OC(C)(C)C)C(C)(C)C)C(=O)NS(=O)(=O)C1CC1 (stereo partly drawn) [Compound 11, BocNH-P3(t-BuGly)-P2(Hyp(O—CO(NH—(4-methoxy-benzyl))))-P1(1R,2S VinylAcca)—CONHSO2Cyclopropane] | 100 to 1000 | 1000 to 10000
